Source: patent US8273774B2, “Phenoxypyridinylamide compounds” (AstraZeneca AB, priority 2008, dated 2012)

Target: recombinant Human Phosphodiesterase B2 (PDE4B2) (Homo sapiens, UniProt Q07343)
Assay: Human Phosphodiesterase B2 Radiometric Assay
Assay type: biochemical
Settings: 0.1 μg/mL recombinant PDE4B2; preincubated at 30 C for 30 min; [3H]cyclic AMP 8 nM, stopped after 20 min; yttrium silicate SPA beads; read-out: PDE4B2 pIC50 (converted)
Method in brief: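 Compounds preincubated 30 min at 30 C with 0.1 μg/mL recombinant PDE4B2 in 50 mM HEPES pH 7.5, 8.3 mM MgCl2, 1.7 mM EGTA, 0.01% Brij 35.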

recombinant Human Phosphodiesterase B2 (PDE4B2), sequence (Q07343 1-564 isoform Q07343-2): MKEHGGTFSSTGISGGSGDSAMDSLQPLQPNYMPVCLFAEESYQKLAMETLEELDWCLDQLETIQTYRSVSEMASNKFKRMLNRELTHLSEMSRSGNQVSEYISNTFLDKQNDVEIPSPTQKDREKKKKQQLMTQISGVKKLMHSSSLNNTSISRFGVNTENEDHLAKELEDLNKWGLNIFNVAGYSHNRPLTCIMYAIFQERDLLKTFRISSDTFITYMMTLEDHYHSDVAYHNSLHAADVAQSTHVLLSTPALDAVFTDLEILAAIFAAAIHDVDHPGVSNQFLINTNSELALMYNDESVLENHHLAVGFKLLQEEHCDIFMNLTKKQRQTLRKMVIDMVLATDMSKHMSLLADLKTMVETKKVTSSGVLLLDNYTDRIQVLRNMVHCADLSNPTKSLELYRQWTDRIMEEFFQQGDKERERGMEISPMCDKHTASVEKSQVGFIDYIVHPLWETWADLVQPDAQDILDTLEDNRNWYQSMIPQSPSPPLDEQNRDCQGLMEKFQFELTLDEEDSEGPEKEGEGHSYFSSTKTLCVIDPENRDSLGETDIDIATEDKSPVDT

| Structure (SMILES) | IC50 [nM] |
| --- | --- |
| Cc1nc(C(=O)N[C@H]2CC[C@@H](NC(=O)c3cc(F)cnc3Oc3cccc(-c4cccc(CN5C[C@@H](C)N[C@@H](C)C5)c4O)c3)CC2)cs1 [Example 69, N-((1s,4s)-4-(2-(3′-(((3R,5S)-3,5-dimethylpiperazin-1-yl)methyl)-2′-hydroxybiphenyl-3-yloxy)-5-fluoronicotinamido)cyclohexyl)-2-methylthiazole-4-carboxamide] | 0.398 |
| C[C@@H]1CN(CCCc2cccc(-c3cccc(Oc4ncc(F)cc4C(=O)N[C@H]4CC[C@@H](NC(=O)c5cc6n(n5)CCC6)CC4)c3)c2)C[C@H](C)N1 [Example 172, N-((1s,4s)-4-(2-(3′-(3-((3S,5R)-3,5-Dimethylpiperazin-1-yl)propyl)biphenyl-3-yloxy)-5-fluoronicotinamido)cyclohexyl)-5,6-dihydro-4H-pyrrolo[1,2-b]pyrazole-2-carboxamide] | 0.0631 |
| Cc1cccc2nc(C(=O)N[C@H]3CC[C@@H](NC(=O)c4cc(F)cnc4Oc4cccc(-c5ccc(O)cc5CN(C)C)c4)CC3)cn12 [Example 11, N-((1s,4s)-4-(2-(2′-((dimethylamino)methyl)-4′-hydroxybiphenyl-3-yloxy)-5-fluoronicotinamido)cyclohexyl)-5-methylimidazo[1,2-a]pyridine-2-carboxamide] | 0.0501 |
| C[C@@H]1CN(CCc2ccc(-c3cccc(Oc4ncc(F)cc4C(=O)N[C@H]4CC[C@@H](NC(=O)c5ccn(C)n5)CC4)c3)cc2)C[C@H](C)N1 [Example 163, 2-(4′-(2-((3S,5R)-3,5-Dimethylpiperazin-1-yl)ethyl)biphenyl-3-yloxy)-5-fluoro-N-((1s,4s)-4-(1-methyl-1H-pyrazole-3-carboxamido)cyclohexyl)nicotinamide] | 0.0398 |
| O=C(N[C@H]1CC[C@@H](NC(=O)c2cc(F)cnc2Oc2cccc(-c3ccc(CCN4CCNCC4)cc3)c2)CC1)c1cnc2ccccc2n1 [Example 186, N-((1s,4s)-4-(5-Fluoro-2-(4′-(2-(piperazin-1-yl)ethyl)biphenyl-3-yloxy)nicotinamido)cyclohexyl)quinoxaline-2-carboxamide] | 0.0398 |
| Cn1nc(C(=O)N[C@H]2CC[C@@H](NC(=O)c3cc(F)cnc3Oc3cccc(-c4ccc(CCCN5CCNCC5)cc4)c3)CC2)cc1C(F)(F)F [Example 160, 5-Fluoro-N-((1s,4s)-4-(1-methyl-5-(trifluoromethyl)-1H-pyrazole-3-carboxamido)cyclohexyl)-2-(4′-(3-(piperazin-1-yl)propyl)biphenyl-3-yloxy)nicotinamide] | 0.01 |
| Cc1nc(C(=O)N[C@H]2CC[C@@H](NC(=O)c3cc(F)cnc3Oc3cccc(-c4cc(O)cc(CN5C[C@@H](C)N[C@@H](C)C5)c4)c3)CC2)cs1 [Example 65, N-((1s,4s)-4-(2-(3′-(((3R,5S)-3,5-dimethylpiperazin-1-yl)methyl)-5′-hydroxybiphenyl-3-yloxy)-5-fluoronicotinamido)cyclohexyl)-2-methylthiazole-4-carboxamide] | 0.0398 |
| O=C(N[C@H]1CC[C@@H](NC(=O)c2cc(F)cnc2Oc2cccc(-c3ccc(CCCN4CCNCC4)cc3)c2)CC1)c1cn2c(n1)CCCC2 [Example 137, N-((1s,4s)-4-(5-fluoro-2-(4′-(3-(piperazin-1-yl)propyl)biphenyl-3-yloxy)nicotinamido)cyclohexyl)-5,6,7,8-tetrahydroimidazo[1,2-a]pyridine-2-carboxamide] | 0.0501 |
| Cc1nc(CN[C@H]2CC[C@@H](NC(=O)c3cc(F)cnc3Oc3cccc(-c4ccc(O)cc4CN4CCOCC4)c3)CC2)cs1 [Example 5, 5-fluoro-2-(4′-hydroxy-2′-(morpholinomethyl)biphenyl-3-yloxy)-N-((1s,4s)-4-((2-methylthiazol-4-yl)methylamino)cyclohexyl)nicotinamide] | 5.01 |
| C[C@@H]1CN(Cc2cc(-c3cccc(Oc4ncc(F)cc4C(=O)N[C@H]4CC[C@@H](NC(=O)c5cnn6cccnc56)CC4)c3)ccc2O)C[C@H](C)N1 [Example 125, N-((1s,4s)-4-(2-(3′-(((3S,5R)-3,5-dimethylpiperazin-1-yl)methyl)-4′-hydroxybiphenyl-3-yloxy)-5-fluoronicotinamido)cyclohexyl)pyrazolo[1,5-a]pyrimidine-3-carboxamide] | 0.0631 |
| Cc1nc(C(=O)N[C@H]2CC[C@@H](NC(=O)c3cc(F)cnc3Oc3cccc(-c4ccc(CCCN5C[C@@H](C)N[C@@H](C)C5)cc4)c3)CC2)cs1 [Example 75, N-((1s,4s)-4-(2-(4′-(3-((3S,5R)-3,5-dimethylpiperazin-1-yl)propyl)biphenyl-3-yloxy)-5-fluoronicotinamido)cyclohexyl)-2-methylthiazole-4-carboxamide] | 0.0316 |
| O=C(N[C@H]1CC[C@@H](NC(=O)c2cc(F)cnc2Oc2cccc(-c3ccc(CCCNCCCO)cc3)c2)CC1)c1cc2n(n1)CCCC2 [Example 128, N-((1s,4s)-4-(5-fluoro-2-(4′-(3-(3-hydroxypropylamino)propyl)biphenyl-3-yloxy)nicotinamido)cyclohexyl)-4,5,6,7-tetrahydropyrazolo[1,5-a]pyridine-2-carboxamide] | 0.126 |
| Cc1nc(C(=O)N[C@H]2CC[C@@H](NC(=O)c3cc(F)cnc3Oc3cccc(-c4ccc(CN5C[C@@H](C)N[C@@H](C)C5)c(O)c4)c3)CC2)cs1 [Example 98, N-((1s,4s)-4-(2-(4′-(((3S,5R)-3,5-dimethylpiperazin-1-yl)methyl)-3′-hydroxybiphenyl-3-yloxy)-5-fluoronicotinamido)cyclohexyl)-2-methylthiazole-4-carboxamide] | 0.1 |

Further lines, results first:

| IC50 [nM] | Structure (SMILES) |
| --- | --- |
| 0.0251 | Cc1cc(C(=O)N[C@H]2CC[C@@H](NC(=O)c3cc(F)cnc3Oc3cccc(-c4ccc(CN5CCSCC5)cc4CN4CCOCC4)c3)CC2)nn1C [Example 138, N-((1s,4s)-4-(1,5-dimethyl-1H-pyrazole-3-carboxamido)cyclohexyl)-5-fluoro-2-(2′-(morpholinomethyl)-4′-(thiomorpholinomethyl)biphenyl-3-yloxy)nicotinamide] |
| 0.01 | Cc1cc(C(=O)N[C@H]2CC[C@@H](NC(=O)c3cc(F)cnc3Oc3cccc(-c4ccc(O)cc4CN4CCCOCC4)c3)CC2)nn1C [Example 19, 2-(2′-((1,4-oxazepan-4-yl)methyl)-4′-hydroxybiphenyl-3-yloxy)-N-((1s,4s)-4-(1,5-dimethyl-1H-pyrazole-3-carboxamido)cyclohexyl)-5-fluoronicotinamide] |
| 0.02 | Cn1ccc(C(=O)N[C@H]2CC[C@@H](NC(=O)c3cc(F)cnc3Oc3cccc(-c4ccc(CN5CCSCC5)cc4CN4CCOCC4)c3)CC2)n1 [Example 199, 5-fluoro-N-((1s,4s)-4-(1-methyl-1H-pyrazole-3-carboxamido)cyclo-hexyl)-2-(2′-(morpholinomethyl)-4′-(thiomorpholinomethyl)biphenyl-3-yloxy)nicotinamide] |
| 0.02 | C[C@@H]1CN(Cc2ccc(-c3cccc(Oc4ncc(F)cc4C(=O)N[C@H]4CC[C@@H](NC(=O)c5cc6n(n5)CCCC6)CC4)c3)c(CN3CCSCC3)c2)C[C@H](C)N1 [Example 188, N-((1s,4s)-4-(2-(4′-(((3S,5R)-3,5-dimethylpiperazin-1-yl)methyl)-2′-(thiomorpholinomethyl)biphenyl-3-yloxy)-5-fluoronicotinamido)cyclohexyl)-4,5,6,7-tetrahydropyrazolo[1,5-a]pyridine-2-carboxamide] |
| 0.02 | C[C@@H]1CN(Cc2ccc(-c3cccc(Oc4ncc(F)cc4C(=O)N[C@H]4CC[C@@H](NC(=O)c5cccc6[nH]cnc56)CC4)c3)c(CN3CCOC[C@@H]3C)c2)C[C@H](C)N1 [Example 195, N-((1s,4s)-4-(2-(4′-(((3S,5R)-3,5-dimethylpiperazin-1-yl)methyl)-2′-(((S)-3-methylmorpholino)methyl)biphenyl-3-yloxy)-5-fluoronicotmamido)cyclohexyl)-1H-benzo[d]imidazole-4-carboxamide] |
| 0.0501 | Cc1cc(C)n2nc(C(=O)N[C@H]3CC[C@@H](NC(=O)c4cc(F)cnc4Oc4cccc(-c5ccc(CN6CCCN(CCO)CC6)cc5CN5CCOC[C@@H]5C)c4)CC3)cc2n1 [Example 179, N-((1s,4s)-4-(5-Fluoro-2-(4′-((4-(2-hydroxyethyl)-1,4-diazepan-1-yl)methyl)-2′-(((S)-3-methylmorpholino)methyl)biphenyl-3-yloxy)nicotinamido)cyclohexyl)-5,7-dimethylpyrazolo[1,5-a]pyrimidine-2-carboxamide] |
| 0.0251 | Cn1ccc(C(=O)N[C@H]2CC[C@@H](NC(=O)c3cc(F)cnc3Oc3cccc(-c4ccc(O)cc4CN4CCOCC4)c3)CC2)n1 [Example 49, 5-fluoro-2-(4′-hydroxy-2′-(morpholinomethyl)biphenyl-3-yloxy)-N-((1s,4s)-4-(1-methyl-1H-pyrazole-3-carboxamido)cyclohexyl)nicotinamide] |
| 0.0251 | Cc1nc(C(=O)N[C@H]2CC[C@@H](NC(=O)c3cc(F)cnc3Oc3cccc(-c4ccc(CN5CCOCC5)cc4O)c3)CC2)cs1 [Example 56, N-((1s,4s)-4-(5-fluoro-2-(2′-hydroxy-4′-(morpholinomethyl)biphenyl-3-yloxy)nicotinamido)cyclohexyl)-2-methylthiazole-4-carboxamide] |
| 0.0158 | C[C@H]1COCCN1Cc1cc(CN2CCCN(CCO)CC2)ccc1-c1cccc(Oc2ncc(F)cc2C(=O)N[C@H]2CC[C@@H](NC(=O)c3cccc4[nH]cnc34)CC2)c1 [Example 180, N-((1s,4s)-4-(5-Fluoro-2-(4′-((4-(2-hydroxyethyl)-1,4-diazepan-1-yl)methyl)-2′-(((S)-3-methylmorpholino)methyl)biphenyl-3-yloxy)nicotinamido)cyclohexyl)-1H-benzo[d]imidazole-4-carboxamide] |
| 0.2 | O=C(NC1CCC(NC(=O)c2cc(F)cnc2Oc2cccc(-c3ccc(CCCN4CCNCC4)cc3)c2)CC1)c1nc(CO)cs1 (centres unmarked) [Example 187, N-((1s,4s)-4-(5-Fluoro-2-(4′-(3-(piperazin-1-yl)propyl)biphenyl-3-yloxy)nicotinamido)cyclohexyl)-4-(hydroxymethyl)thiazole-2-carboxamide] |
